# From patent US20250082914A1 (priority 2022, published 2025)
# Legend:
# [1] = In vitro drug release, USP device type II, SGF then SIF; type: physicochemical; conditions: after switch from SGF pH 1.2 (30 min) to SIF pH 6.8; 37° C., 100 rpm; 8 mm device, 20 mg desmopressin, 40 mg PVP, enteric capsule
# Method: The temperature was set at 37° C., and the rotating speed was at 100 rpm. Aliquots of 1 mL were sampled at the predetermined time points and the sampled volume was replaced with fresh SGF or SIF buffer. Quantification was carried by HPLC (VWR Hitachi Chromaster system with 5160 pump, 5260 autosampler, 5310 column oven and 5430 diode array detector, VWR International, Radnor, PA) with the UV wavelength set at 280 nm. […] At the intestinal pH, desmopressin started being released when the solvent was switched to SIF and was completely released within about 20 minutes. […] The drug release kinetics is also controlled with the polymeric excipient.
# [2] = in the presence of permeation enhancers; cited from earlier work
time to complete release of desmopressin [1],Compound,oral bioavailability [2]
≤ 20 min,NC(=O)CC[C@@H]1NC(=O)[C@H](Cc2ccccc2)NC(=O)[C@H](Cc2ccc(O)cc2)NC(=O)CCSSC[C@@H](C(=O)N2CCC[C@H]2C(=O)N[C@H](CCCN=C(N)N)C(=O)NCC(N)=O)NC(=O)[C@H](CC(N)=O)NC1=O [desmopressin],–
–,C[C@@H](O)[C@@H]1NC(=O)[C@H](CCCCN)NC(=O)[C@@H](Cc2c[nH]c3ccccc23)NC(=O)[C@H](Cc2ccccc2)NC(=O)[C@@H](NC(=O)[C@H](N)Cc2ccccc2)CSSC[C@@H](C(=O)N[C@H](CO)[C@@H](C)O)NC1=O [octreotride],0.5-1%
–,semaglutide,~1%
